Test results: ChEMBL document CHEMBL6121011, “An oxidation-reduction-triggered thiamine disulfide-based prodrug of 10-hydroxycamptothecin for selective tumor cell locking and therapeutic delivery” (Eur J Med Chem, 2025)
The source made the active and inactive calls. The rule behind the calls is not given here.

What was measured:
[1] = Drug internalization in mouse 4T1 cells assessed as green fluorescence in cytoplasm at 20 uM measured after 1 hr by CLSM analysis; format: ADME, cell-based; conditions: 4t1, 1 h
[2] = Prodrug stability in 5 uM to 5 mM GSH assessed as compound remaining at 20 uM measured for 24 hrs by RP-HPLC analysis; format: ADME
[3] = Prodrug release in human MCF-10A cells assessed as Nap release at 20 uM measured after 2 hrs by confocal microscopy; format: ADME, cell-based
[4] = Drug internalization in mouse 4T1 cells assessed as fold change in green fluorescence in cytoplasm at 20 uM measured after 8 hrs by flow cytometry relative to K-Nap; format: ADME, cell-based; conditions: 4t1, 8 h
4T1 [5] = assay: Cytotoxicity against mouse 4T1 cells assessed as cell viability at 5 to 50 uM incubated for 24 hrs by CCK8 assay relative to control; format: functional; conditions: dose 5-50 µM
[6] = Prodrug release in human MCF7 cells assessed as Nap release at 20 uM measured after 2 hrs by confocal microscopy; format: ADME, cell-based; conditions: mcf7, 2 h
[7] = Cytotoxicity against human MCF-10A cells assessed as cell viability at 5 to 50 uM incubated for 24 hrs by CCK8 assay relative to control; format: toxicity, cell-based; conditions: dose 5-50 µM, read-out: Activity
[8] = Drug localization in cytoplasm of mouse 4T1 cells at 20 uM measured after 2 hrs by CLSM analysis; format: ADME, subcellular; conditions: 4t1, 2 h
[9] = Drug localization in mitochondria of mouse 4T1 cells at 20 uM measured after 2 hrs by CLSM analysis; format: ADME; conditions: 4t1, 2 h
[10] = Prodrug release in human MDA-MB-231 cells assessed as Nap release at 20 uM measured after 2 hrs by confocal microscopy; format: ADME, cell-based; conditions: mda-mb-231, 2 h
[11] = Prodrug release in mouse 4T1 cells assessed as Nap release at 20 uM measured after 2 hrs by confocal microscopy; format: ADME, cell-based; conditions: 4t1, 2 h
[12] = Drug internalization in mouse 4T1 cells assessed as green fluorescence in cytoplasm at 20 uM measured after 8 hrs by CLSM analysis; format: ADME, cell-based; conditions: 4t1, 8 h
[13] = Drug internalization in mouse 4T1 cells assessed as fold change in green fluorescence in cytoplasm at 20 uM measured after 8 hrs by flow cytometry relative to TD-Nap; format: ADME, cell-based; conditions: 4t1, 8 h
4T1 [14] = assay: Induction of intracellular ROS generation in mouse 4T1 cells assessed as fold increase in DCF fluorescence at 0.5 uM incubated for 24 hrs by DCFH-DA probe based CLSM analysis relative to control; format: functional
[15] = Drug localization in mitochondria of mouse 4T1 cells at 20 uM measured after 2 hrs by flow cytometry; format: ADME; conditions: 4t1, 2 h
[16] = Drug internalization in mouse 4T1 cells assessed as green fluorescence in cytoplasm at 20 uM measured after 2 hrs by CLSM analysis; format: ADME, cell-based; conditions: 4t1, 2 h
PC-3 = assay: Antiproliferative activity against human PC-3 cells incubated for 48 hrs by CCK8 assay; format: functional, cell-based; conditions: PC-3, 48 h
[17] = Antiproliferative activity against human MCF-10A cells incubated for 48 hrs by CCK8 assay; format: toxicity, cell-based
4T1 [18] = assay: Antiproliferative activity against mouse 4T1 cells incubated for 48 hrs by CCK8 assay; format: functional, cell-based; conditions: 4T1, 48 h
U-87 MG = assay: Antiproliferative activity against human U-87 MG cells incubated for 48 hrs by CCK8 assay; format: functional, cell-based, U-87MG ATCC
MDA-MB-231 = assay: Antiproliferative activity against human MDA-MB-231 cells incubated for 48 hrs by CCK8 assay; format: functional, cell-based; conditions: MDA-MB-231, 48 h
MCF7 = assay: Antiproliferative activity against human MCF7 cells incubated for 48 hrs by CCK8 assay; format: functional, cell-based; conditions: MCF7, 48 h
HepG2 = assay: Antiproliferative activity against human HepG2 cells incubated for 48 hrs by CCK8 assay; format: functional, cell-based; conditions: HepG2, 48 h
[19] = AUC in Sprague-Dawley rat at 10 mg/kg, iv by HPLC-MS analysis; format: ADME, organism-based; conditions: in vivo
4T1 [20] = assay: Antitumor activity against mouse 4T1 cells implanted in BALB/c mouse assessed as tumor growth inhibition at 10 mg/kg, iv once every two days for 14 days; format: functional, organism-based; conditions: time 14.0 day
[21] = Toxicity in BALB/c mouse implanted with mouse 4T1 cells assessed as animal death at 10 mg/kg, iv once every two days measured for 9 to 10 days; format: organism-based; conditions: in vivo, time 9-10 day
[22] = Cmax in Sprague-Dawley rat at 10 mg/kg, iv by HPLC-MS analysis; format: ADME, organism-based; conditions: in vivo
4T1 [23] = assay: Induction of mitochondrial damage in mouse 4T1 cells assessed as increase in green fluorescence at 0.5 uM incubated for 24 hrs by JC-1 staining based CLSM analysis; format: functional, cell-based
4T1 [24] = assay: Anti-metastatic activity in mouse 4T1 cells assessed as wound closure at 0.5 uM incubated for 24 hrs by scratch-wound assay (reference value: 42 %); format: functional
4T1 [25] = assay: Induction of intracellular ROS generation in mouse 4T1 cells at 0.5 uM incubated for 24 hrs by DCFH-DA probe based CLSM analysis; format: functional, cell-based
[26] = Toxicity in BALB/c mouse implanted with mouse 4T1 cells assessed as damage in major organ tissues administered intravenously once every two days at equivalent dose of 10 mg/kg of HCPT for 14 days; format: organism-based; conditions: in vivo, iv, 336 h, time 14 day
[27] = Toxicity in BALB/c mouse implanted with mouse 4T1 cells assessed as body weight loss administered intravenously once every two days at equivalent dose of 10 mg/kg of HCPT for 14 days; format: organism-based; conditions: in vivo, iv, 336 h, time 14 day
[28] = Toxicity in BALB/c mouse implanted with mouse 4T1 cells assessed as animal death administered intravenously once every two days at equivalent dose of 10 mg/kg of HCPT for 14 days; format: organism-based; conditions: in vivo, iv, 336 h, time 14 day
4T1 [29] = assay: Antitumor activity against mouse 4T1 cells implanted in BALB/c mouse assessed as tumor growth inhibition administered intravenously once every two days at equivalent dose of 10 mg/kg of HCPT for 14 days; format: functional, organism-based; conditions: route iv, time 14.0 day
[30] = Prodrug stability in 10 mM H2O2 assessed as compound remaining at 18 uM measured after 12 hrs by RP-HPLC analysis; format: ADME
[31] = AUC in Sprague-Dawley rat assessed as fold change at 24 mg/kg, iv by HPLC-MS analysis relative to HCPT; format: ADME, organism-based; conditions: in vivo
[32] = Prodrug stability in 5 mM GSH assessed as compound remaining at 18 uM measured after 12 hrs by RP-HPLC analysis; format: ADME
4T1 [33] = assay: Antitumor activity against mouse 4T1 cells implanted in BALB/c mouse assessed as reduction in tumor size administered intravenously once every two days at equivalent dose of 10 mg/kg of HCPT for 14 days; format: functional, organism-based; conditions: route iv, time 14.0 day
[34] = Prodrug stability in 100 mM H2O2 assessed as compound remaining at 18 uM measured after 2 hrs by RP-HPLC analysis; format: ADME
[35] = Prodrug stability in 5 uM GSH assessed as compound remaining at 18 uM measured after 24 hrs by RP-HPLC analysis; format: ADME
[36] = Terminal elimination half life in Sprague-Dawley rat at 24 mg/kg, iv by HPLC-MS analysis; format: ADME, organism-based; conditions: in vivo, read-out: LambdaZ (converted)
4T1 [37] = assay: Antitumor activity against mouse 4T1 cells implanted in BALB/c mouse assessed as increase in pyknotic cells with highly condensed nuclei administered intravenously once every two days at equivalent dose of 10 mg/kg of HCPT for 14 days by H and E staining based analysis; format: functional, organism-based; conditions: route iv, time 14.0 day
[38] = Cmax in Sprague-Dawley rat at 24 mg/kg, iv by HPLC-MS analysis; format: ADME, organism-based; conditions: in vivo
[39] = Cmax in Sprague-Dawley rat assessed as fold change at 24 mg/kg, iv by HPLC-MS analysis relative to HCPT; format: ADME, organism-based; conditions: in vivo
[40] = AUC in Sprague-Dawley rat at 24 mg/kg, iv by HPLC-MS analysis; format: ADME, organism-based; conditions: in vivo
4T1 [41] = assay: Antitumor activity against mouse 4T1 cells implanted in BALB/c mouse assessed as reduction in tumor weight administered intravenously once every two days at equivalent dose of 10 mg/kg of HCPT for 14 days; format: functional, organism-based; conditions: route iv, time 14.0 day

SMILES: CCCN1C(=O)c2cccc3c(OC(=O)CCCSC(C)(C)SCCCC(=O)OCC/C(SSCC(C)C)=C(\C)N(C)C=O)ccc(c23)C1=O
- Drug uptake [1]: Active
- Stability [2]: Stable
- Drug metabolism [3]: metabolite_notdetected
- fold change (FC) [4]: ~ 2
- Activity (4T1 [5]): >90%
- Drug metabolism [6]: metabolite_detected
- viability at 24 h, 50 µM [7]: > 90%
- Drug uptake [8]: Active
- Drug uptake [9]: Active
- Drug metabolism [10]: metabolite_detected
- Drug metabolism [11]: metabolite_detected
- Drug uptake [12]: Active
- fold change (FC) [13]: ~ 2
- fold change (FC) (4T1 [14]): ~6.5
- Drug uptake [15]: Active
- Drug uptake [16]: Active

SMILES: C/C(=C(\CCOC(=O)CCCSC(C)(C)SCCCC(=O)O)SSCC(C)C)N(C)C=O
- IC50 (PC-3): > 100 µM
- IC50 at 48 h [17]: > 100 µM
- IC50 (4T1 [18]): > 100 µM
- IC50 (U-87 MG): > 100 µM
- IC50 (MDA-MB-231): > 100 µM
- IC50 (MCF7): > 100 µM
- IC50 (HepG2): > 100 µM

SMILES: CC[C@@]1(O)C(=O)OCc2c1cc1n(c2=O)Cc2cc3cc(O)ccc3nc2-1 [HYDROXYCAMPTOTHECIN]
- AUC [19]: 1020 ng·h/mL
- inhibition (4T1 [20]): Active; Moderate Effect Observed
- IC50 (PC-3): 1.46 µM
- IC50 at 48 h [17]: 3.17 µM
- IC50 (4T1 [18]): 1.71 µM
- Activity [21]: Toxic
- IC50 (U-87 MG): 2.43 µM
- IC50 (MDA-MB-231): 3.12 µM
- IC50 (MCF7): 1.09 µM
- Cmax [22]: 1950 ng/mL
- Activity (4T1 [23]): Active; Moderate Activity Observed
- Activity (4T1 [24]): ~34%
- Activity (4T1 [25]): Active; Moderate Elevations Observed
- IC50 (HepG2): 0.95 µM

SMILES: CCCN1C(=O)c2cccc3c(OC(=O)CCC(=O)OCC/C(SSCC(C)C)=C(\C)N(C)C=O)ccc(c23)C1=O
- Drug uptake [1]: Active
- Drug uptake [8]: Active
- Drug uptake [9]: Active
- Drug uptake [12]: Not_active

SMILES: CC[C@@]1(O)C(=O)OCc2c1cc1n(c2=O)Cc2cc3cc(OC(=O)CCC(=O)OCC/C(SSCC(C)C)=C(\C)N(C)C=O)ccc3nc2-1
- IC50 (PC-3): 3.45 µM
- IC50 at 48 h [17]: 10.5 µM
- Activity [26]: Non-toxic
- IC50 (4T1 [18]): 5.34 µM
- Activity [27]: Non-toxic
- Activity [28]: Non-toxic
- IC50 (U-87 MG): 5.48 µM
- IC50 (MDA-MB-231): 10.4 µM
- IC50 (MCF7): 7.32 µM
- Activity (4T1 [23]): Active
- inhibition (4T1 [29]): Active; Moderate Effect Observed
- Activity (4T1 [24]): ~25%
- Activity (4T1 [25]): inactive
- IC50 (HepG2): 5.32 µM

SMILES: CCOC(=O)CCCSC(C)(C)SCCCC(=O)Oc1ccc2nc3c(cc2c1)Cn1c-3cc2c(c1=O)COC(=O)[C@]2(O)CC
- IC50 (PC-3): 1.93 µM
- IC50 at 48 h [17]: 20.7 µM
- Activity [26]: Non-toxic
- IC50 (4T1 [18]): 3.78 µM
- Activity [27]: Non-toxic
- Activity [28]: Non-toxic
- IC50 (U-87 MG): 6.24 µM
- IC50 (MDA-MB-231): 7.02 µM
- IC50 (MCF7): 4.21 µM
- Activity (4T1 [23]): Active
- inhibition (4T1 [29]): Active; Moderate Effect Observed
- Activity (4T1 [24]): ~34%
- Activity (4T1 [25]): inactive
- IC50 (HepG2): 1.47 µM

SMILES: CCCN1C(=O)c2cccc3c(OC(=O)CCCSC(C)(C)SCCCC(=O)OCC)ccc(c23)C1=O
- Drug uptake [1]: Active
- Drug uptake [8]: Active
- Drug uptake [9]: Active
- Drug uptake [12]: Active
- Drug uptake [16]: Active

SMILES: CC[C@@]1(O)C(=O)OCc2c1cc1n(c2=O)Cc2cc3cc(OC(=O)CCCSC(C)(C)SCCCC(=O)OCC/C(SSCC(C)C)=C(\C)N(C)C=O)ccc3nc2-1
- Stability [30]: < 12%
- fold change (FC) [31]: 2
- IC50 (PC-3): 1.39 µM
- IC50 at 48 h [17]: 33.3 µM
- Stability [32]: <= 10%
- Activity (4T1 [33]): Active; Exhibited Smallest Tumor Among Tested Compounds
- Activity [26]: Non-toxic
- IC50 (4T1 [18]): 0.96 µM
- Stability [34]: Unstable
- Activity [27]: Non-toxic
- Stability [35]: 84.8%
- Activity [28]: Non-toxic
- IC50 (U-87 MG): 4.05 µM
- IC50 (MDA-MB-231): 5.43 µM
- half-life [36]: 3.24 h
- IC50 (MCF7): 1.02 µM
- Activity (4T1 [37]): Active
- Activity (4T1 [23]): Active; Most Potential Among Tested Compounds
- Cmax [38]: 7450 ng/mL
- inhibition (4T1 [29]): Active; Most Pronounced Effect Observed Among Tested Compounds
- Activity (4T1 [24]): 11%
- fold change (FC) [39]: 4
- AUC [40]: 2720 ng·h/mL
- Activity (4T1 [41]): Active; Lowest Tumor Weigth Observed Among Tested Compounds
- IC50 (HepG2): 1.01 µM
